Results taken from US9957254B2, “Cyclohexen-1-yl-pyridin-2-yl-1h-pyrazole-4-carboxylic acid derivatives and the use thereof as soluble guanylate cyclase activators” (Novartis AG, priority 2014, dated 2018).

Molecular target: T1, soluble guanylate cyclase (Homo sapiens, UniProt Q02153)
T1 construct: expressed in transfected cells
Assay: CHO cellular assay (cGMP production, Cisbio cGMP HTRF)
Type: cell-based
Details: CHO K1 cells overexpressing human GUCYA3/GUCYB3 (clone 8E10), 1 mM IBMX, 20 uM ODQ, 1 h room temperature, listed 0.5 nM means actual EC50 ≤0.5 nM (quantification limit)
Source text: Chinese hamster ovary (CHO) cells overexpressing soluble guanylate cyclase were generated to test the effect of sGC activators in a cellular context. Human cDNAs for GUCYA3 (RefSeq: NM_000856.3) and GUCYB3 (RefSeq: NM_000857.1) were amplified by PCR from a HUVEC (Human Umbilical Vein Endothelial Cells) cDNA library and cloned into mammalian expression vectors. CHO K1 cells (ATCC CCL-61) were transfected using Lipofectamine 2000 following manufacturer's instructions and stably expressing clones were identified by antibiotic selection. CHO GUCY clone 8E10 was used for subsequent experiments.
Cells were seeded at a density of 3000 cells/well in white 384-well proxyplates (Perkin Elmer) and incubated overnight, then the medium was removed and cells were washed with assay buffer (HBSS, 0.1% BSA, 1 mM IBMX, 20 uM ODQ). sGC activators were serially diluted in DMSO, then diluted in assay buffer prior to adding to cells (10 ul/well, final DMSO concentration 0.5%). Cells were incubated with compounds for 1 h room temperature, then assayed for cGMP production using Cisbio cGMP HTRF kit (62GM2PEC) according to manufacturer's instructions.
The EC50s are calculated based on the amount of cGMP interpolated from the standard curve, using a 4-parameter sigmoidal dose-response.
Compounds of invention are active on sGC activation. Data on Table 1 collected using the assay of Biological Example 1. The minimum EC50 quantification limit of the assay is 0.5 nM, therefore any compound listed as having an EC50 value of 0.5 nM has a actual EC50 of ≤0.5 nM.

T1 sequence (Q02108 whole entry partner): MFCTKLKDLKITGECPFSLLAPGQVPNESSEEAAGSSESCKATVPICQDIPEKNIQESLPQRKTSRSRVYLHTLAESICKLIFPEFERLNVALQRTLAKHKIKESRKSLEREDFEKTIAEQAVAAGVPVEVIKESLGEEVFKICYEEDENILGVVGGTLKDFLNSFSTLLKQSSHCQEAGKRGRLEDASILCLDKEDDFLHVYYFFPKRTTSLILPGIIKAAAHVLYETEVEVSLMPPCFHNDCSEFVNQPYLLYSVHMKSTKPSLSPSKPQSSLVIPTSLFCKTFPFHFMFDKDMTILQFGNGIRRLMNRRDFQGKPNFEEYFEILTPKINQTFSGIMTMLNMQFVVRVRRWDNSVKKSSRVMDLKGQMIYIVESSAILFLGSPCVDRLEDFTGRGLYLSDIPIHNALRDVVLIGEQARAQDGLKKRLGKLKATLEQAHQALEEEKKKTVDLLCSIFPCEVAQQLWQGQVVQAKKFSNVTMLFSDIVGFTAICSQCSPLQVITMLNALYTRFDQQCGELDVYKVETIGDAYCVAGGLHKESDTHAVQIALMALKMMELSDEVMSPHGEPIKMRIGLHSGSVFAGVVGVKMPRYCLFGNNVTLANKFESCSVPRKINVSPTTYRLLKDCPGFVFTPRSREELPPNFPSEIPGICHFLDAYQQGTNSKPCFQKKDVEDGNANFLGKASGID
T1 sequence (Q02153 whole entry): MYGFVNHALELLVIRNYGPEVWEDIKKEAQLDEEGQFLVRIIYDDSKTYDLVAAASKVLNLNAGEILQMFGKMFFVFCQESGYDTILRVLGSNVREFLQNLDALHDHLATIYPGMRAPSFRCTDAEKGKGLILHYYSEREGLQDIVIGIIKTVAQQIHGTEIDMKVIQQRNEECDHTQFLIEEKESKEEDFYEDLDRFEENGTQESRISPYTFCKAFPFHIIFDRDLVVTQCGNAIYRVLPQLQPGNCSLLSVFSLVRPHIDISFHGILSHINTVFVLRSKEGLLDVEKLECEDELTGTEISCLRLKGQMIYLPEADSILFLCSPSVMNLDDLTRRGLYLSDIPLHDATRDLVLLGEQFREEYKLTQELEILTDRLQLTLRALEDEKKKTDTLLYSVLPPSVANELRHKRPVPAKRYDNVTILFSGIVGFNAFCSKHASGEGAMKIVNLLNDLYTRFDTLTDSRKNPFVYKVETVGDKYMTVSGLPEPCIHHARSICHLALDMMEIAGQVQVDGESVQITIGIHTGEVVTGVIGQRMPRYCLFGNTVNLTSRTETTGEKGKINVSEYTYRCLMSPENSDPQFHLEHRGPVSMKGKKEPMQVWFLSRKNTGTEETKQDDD

Row | SMILES | EC50 [nM]
1 | CCc1cc(OCC2=C(c3cccc(-n4ncc(C(=O)O)c4C(F)F)n3)CCCC2C)ccc1C1CCN(C(=O)C2CC2)CC1 (single isomer, unassigned; (-)) [Example 20b (−), (−)-1-(6-(2-((4-(1-(cyclopropanecarbonyl)piperidin-4-yl)-3-ethylphenoxy)methyl)-3-methylcyclohex-1-en-1-yl)pyridin-2-yl)-5-(difluoromethyl)-1H-pyrazole-4-carboxylic acid] | 2
2 | CCc1cc(OCC2=C(c3cccc(-n4ncc(C(=O)O)c4C(F)(F)F)n3)CCC2C)ccc1C1CCN(C(=O)C2CC2)CC1 (single isomer, unassigned; (-)) [Example 22(b) (−), (−)-1-(6-(2-((4-(1-(cyclopropanecarbonyl)piperidin-4-yl)-3-ethylphenoxy)methyl)-3-methylcyclopent-1-en-1-yl)pyridin-2-yl)-5-(trifluoromethyl)-1H-pyrazole-4-carboxylic acid] | 5.5
3 | CCc1cc(OCC2=C(c3cccc(-n4ncc(C(=O)O)c4CC)n3)CCCC2C)ccc1C1CCN(C(=O)[C@H](C)O)CC1 (single isomer, unassigned; diastereomer-1) [Example 18a] | ≤ 0.5
4 | CCc1cc(OCC2=C(c3cccc(-n4ncc(C(=O)O)c4C)n3)CCCC2C)ccc1C1CCN(C(=O)[C@H](C)O)CC1 (single isomer, unassigned; diastereomer-1) [Example 19a] | ≤ 0.5
5 | CCc1cc(OCC2=C(c3cccc(-n4ncc(C(=O)O)c4CC)n3)CCCC2C)ccc1C1CCN(C(=O)[C@H](C)O)CC1 (single isomer, unassigned; diastereomer-2) [Example 18b] | 8.9
6 | CCc1cc(OCC2=C(c3cccc(-n4ncc(C(=O)O)c4C)n3)CCCC2C)ccc1C1CCN(C(=O)[C@H](C)O)CC1 (single isomer, unassigned; diastereomer-2) [Example 19b] | 8
7 | Cc1cc(C2CCN(C(=O)C3CC3)CC2)ccc1OCC1=C(c2cccc(-n3ncc(C(=O)O)c3C(F)(F)F)n2)CCCC1 [Example 1, 1-(6-(2-((4-(1-(Cyclopropanecarbonyl)piperidin-4-yl)-2-methylphenoxy)methyl)cyclohex-1-en-1-yl)pyridin-2-yl)-5-(trifluoromethyl)-1H-pyrazole-4-carboxylic acid] | ≤ 0.5
8 | CCC(=O)N1CCC(c2ccc(OCC3=C(c4cccc(-n5ncc(C(=O)O)c5C(F)(F)F)n4)CCCC3)c(C)c2)CC1 [Example 2-1, 1-(6-(2-((2-methyl-4-(1-propionylpiperidin-4-yl)phenoxy)methyl)cyclohex-1-en-1-yl)pyridin-2-yl)-5-(trifluoromethyl)-1H-pyrazole-4-carboxylic acid] | ≤ 0.5
9 | COC(=O)N1CCC(c2ccc(OCC3=C(c4cccc(-n5ncc(C(=O)O)c5C(F)(F)F)n4)CCCC3)c(C)c2)CC1 [Example 2-2, 1-(6-(2-((4-(1-(methoxycarbonyl)piperidin-4-yl)-2-methylphenoxy)methyl)cyclohex-1-en-1-yl)pyridin-2-yl)-5-(trifluoromethyl)-1H-pyrazole-4-carboxylic acid] | 1
10 | Cc1cc(C2CCN(S(C)(=O)=O)CC2)ccc1OCC1=C(c2cccc(-n3ncc(C(=O)O)c3C(F)(F)F)n2)CCCC1 [Example 2-3, 1-(6-(2-((2-methyl-4-(1-(methylsulfonyl)piperidin-4-yl)phenoxy)methyl)cyclohex-1-en-1-yl)pyridin-2-yl)-5-(trifluoromethyl)-1H-pyrazole-4-carboxylic acid] | 1
11 | Cc1cc(C2CCN(C(=O)N(C)C)CC2)ccc1OCC1=C(c2cccc(-n3ncc(C(=O)O)c3C(F)(F)F)n2)CCCC1 [Example 2-4, 1-(6-(2-((4-(1-(dimethylcarbamoyl)piperidin-4-yl)-2-methylphenoxy)methyl)cyclohex-1-en-1-yl)pyridin-2-yl)-5-(trifluoromethyl)-1H-pyrazole-4-carboxylic acid] | 1
12 | Cc1cc(C2CCN(C(=O)CO)CC2)ccc1OCC1=C(c2cccc(-n3ncc(C(=O)O)c3C(F)(F)F)n2)CCCC1 [Example 2-5, 1-(6-(2-((4-(1-(2-hydroxyacetyl)piperidin-4-yl)-2-methylphenoxy)methyl)cyclohex-1-en-1-yl)pyridin-2-yl)-5-(trifluoromethyl)-1H-pyrazole-4-carboxylic acid] | 2.4
13 | O=C(O)c1cnn(-c2cccc(C3=C(COc4ccc(C5CCN(C(=O)C6CC6)CC5)cc4)CCCC3)n2)c1C(F)(F)F [Example 2-6, 1-(6-(2-((4-(1-(cyclopropanecarbonyl)piperidin-4-yl)phenoxy)methyl)cyclohex-1-en-1-yl)pyridin-2-yl)-5-(trifluoromethyl)-1H-pyrazole-4-carboxylic acid] | 6.3
14 | CCN(CC)C(=O)N1CCC(c2ccc(OCC3=C(c4cccc(-n5ncc(C(=O)O)c5C(F)(F)F)n4)CCCC3)c(C)c2)CC1 [Example 2-7, 1-(6-(2-((4-(1-(diethylcarbamoyl)piperidin-4-yl)-2-methylphenoxy)methyl)cyclohex-1-en-1-yl)pyridin-2-yl)-5-(trifluoromethyl)-1H-pyrazole-4-carboxylic acid] | 2
15 | CCS(=O)(=O)N1CCC(c2ccc(OCC3=C(c4cccc(-n5ncc(C(=O)O)c5C(F)(F)F)n4)CCCC3)c(C)c2)CC1 [Example 2-8, 1-(6-(2-((4-(1-(ethylsulfonyl)piperidin-4-yl)-2-methylphenoxy)methyl)cyclohex-1-en-1-yl)pyridin-2-yl)-5-(trifluoromethyl)-1H-pyrazole-4-carboxylic acid] | ≤ 0.5
16 | Cc1cc(C2CCN(S(=O)(=O)C3CC3)CC2)ccc1OCC1=C(c2cccc(-n3ncc(C(=O)O)c3C(F)(F)F)n2)CCCC1 [Example 2-9, 1-(6-(2-((4-(1-(cyclopropylsulfonyl)piperidin-4-yl)-2-methylphenoxy)methyl)cyclohex-1-en-1-yl)pyridin-2-yl)-5-(trifluoromethyl)-1H-pyrazole-4-carboxylic acid] | 1
17 | Cc1cc(C2CCN(C(=O)C(C)C)CC2)ccc1OCC1=C(c2cccc(-n3ncc(C(=O)O)c3C(F)(F)F)n2)CCCC1 [Example 2-10, 1-(6-(2-((4-(1-isobutyrylpiperidin-4-yl)-2-methylphenoxy)methyl)cyclohex-1-en-1-yl)pyridin-2-yl)-5-(trifluoromethyl)-1H-pyrazole-4-carboxylic acid] | ≤ 0.5
18 | Cc1cc(C2CCN(C(=O)C3CCC3)CC2)ccc1OCC1=C(c2cccc(-n3ncc(C(=O)O)c3C(F)(F)F)n2)CCCC1 [Example 2-11, 1-(6-(2-((4-(1-(cyclobutanecarbonyl)piperidin-4-yl)-2-methylphenoxy)methyl)cyclohex-1-en-1-yl)pyridin-2-yl)-5-(trifluoromethyl)-1H-pyrazole-4-carboxylic acid] | 1
19 | CCNC(=O)N1CCC(c2ccc(OCC3=C(c4cccc(-n5ncc(C(=O)O)c5C(F)(F)F)n4)CCCC3)c(C)c2)CC1 [Example 2-12, 1-(6-(2-((4-(1-(ethylcarbamoyl)piperidin-4-yl)-2-methylphenoxy)methyl)cyclohex-1-en-1-yl)pyridin-2-yl)-5-(trifluoromethyl)-1H-pyrazole-4-carboxylic acid] | 14
20 | Cc1cc(C2CCN(C(=O)OC(C)(C)C)CC2)ccc1OCC1=C(c2cccc(-n3ncc(C(=O)O)c3C(F)(F)F)n2)CCCC1 [Example 2-13, 1-(6-(2-((4-(1-(tert-butoxycarbonyl)piperidin-4-yl)-2-methylphenoxy)methyl)cyclohex-1-en-1-yl)pyridin-2-yl)-5-(trifluoromethyl)-1H-pyrazole-4-carboxylic acid] | 110
21 | Cc1cc(C2CCN(C(=O)[C@H](C)O)CC2)ccc1OCC1=C(c2cccc(-n3ncc(C(=O)O)c3C(F)(F)F)n2)CCCC1 [Example 3, (S)-1-(6-(2-((4-(1-(2-hydroxypropanoyl)piperidin-4-yl)-2-methylphenoxy)methyl)cyclohex-1-en-1-yl)pyridin-2-yl)-5-(trifluoromethyl)-1H-pyrazole-4-carboxylic acid] | ≤ 0.5
22 | Cc1cc(C2CCN(C(=O)[C@@H](C)O)CC2)ccc1OCC1=C(c2cccc(-n3ncc(C(=O)O)c3C(F)(F)F)n2)CCCC1 [Example 4-1, (R)-1-(6-(2-((4-(1-(2-hydroxypropanoyl)piperidin-4-yl)-2-methylphenoxy)methyl)cyclohex-1-en-1-yl)pyridin-2-yl)-5-(trifluoromethyl)-1H-pyrazole-4-carboxylic acid] | 164
23 | Cc1cc(C2CCN(C(=O)c3ccccn3)CC2)ccc1OCC1=C(c2cccc(-n3ncc(C(=O)O)c3C(F)(F)F)n2)CCCC1 [Example 4-2, 1-(6-(2-((2-methyl-4-(1-picolinoylpiperidin-4-yl)phenoxy)methyl)cyclohex-1-en-1-yl)pyridin-2-yl)-5-(trifluoromethyl)-1H-pyrazole-4-carboxylic acid] | 8.4
24 | Cc1cccc(CN2CCc3cc(OCC4=C(c5cccc(-n6ncc(C(=O)O)c6C(F)(F)F)n5)CCCC4)ccc3C2)n1 [Example 5, 1-(6-(2-(((2-((6-Methylpyridin-2-yl)methyl)-1,2,3,4-tetrahydroisoquinolin-6-yl)oxy)methyl)cyclohex-1-en-1-yl)pyridin-2-yl)-5-(trifluoromethyl)-1H-pyrazole-4-carboxylic acid] | 10
